Assay results from PMC6501583 (Journal of medicinal chemistry, 2019).
Entries after “also recorded” stand apart in the source; their conditions may differ. Blank lines part the entries; values can stand above or below the molecule they belong to.

Tests used:
[1] = target: rat mGlu7 (Rattus norvegicus, UniProt P35400); type: cell-based
[2] = tested on: mice; assay: Light/dark box assay; type: in vivo, mouse; settings: vs vehicle
[3] = tested on: mice; assay: Mouse marble-burying assay; type: in vivo; settings: vs vehicle
[4] = Predicted hepatic clearance; type: in vitro ADME; settings: for Rat CLhep: Table 2, predicted hepatic clearance; for rat CLhep: Table 1, predicted hepatic clearance
[5] = Predicted hepatic clearance; type: in vitro ADME
[6] = tested on: mGlu1–6,8; assay: Selectivity versus the other seven mGlu receptors; type: cell-based
[7] = tested on: mice; assay: Elevated zero maze; type: in vivo, mouse
[8] = Rat plasma:brain level; type: in vivo; settings: rat PBL IV cassette
[9] = target: 5-HT2B receptor (Homo sapiens, UniProt P41595); assay: Eurofins lead profiling panel of 68 GPCRs, ion channels, and transporters; type: binding; settings: at 10 μM; only target of 68 above 50%
[10] = 30 mg/kg; type: in vivo, rat
[11] = Discrete iv and po pharmacokinetics in rat; type: in vivo; settings: plasma, 0.2 mg/kg
[12] = tested on: hippocampus (native tissues); settings: cited from earlier work

Chain of rat mGlu7 (P35400 35-915): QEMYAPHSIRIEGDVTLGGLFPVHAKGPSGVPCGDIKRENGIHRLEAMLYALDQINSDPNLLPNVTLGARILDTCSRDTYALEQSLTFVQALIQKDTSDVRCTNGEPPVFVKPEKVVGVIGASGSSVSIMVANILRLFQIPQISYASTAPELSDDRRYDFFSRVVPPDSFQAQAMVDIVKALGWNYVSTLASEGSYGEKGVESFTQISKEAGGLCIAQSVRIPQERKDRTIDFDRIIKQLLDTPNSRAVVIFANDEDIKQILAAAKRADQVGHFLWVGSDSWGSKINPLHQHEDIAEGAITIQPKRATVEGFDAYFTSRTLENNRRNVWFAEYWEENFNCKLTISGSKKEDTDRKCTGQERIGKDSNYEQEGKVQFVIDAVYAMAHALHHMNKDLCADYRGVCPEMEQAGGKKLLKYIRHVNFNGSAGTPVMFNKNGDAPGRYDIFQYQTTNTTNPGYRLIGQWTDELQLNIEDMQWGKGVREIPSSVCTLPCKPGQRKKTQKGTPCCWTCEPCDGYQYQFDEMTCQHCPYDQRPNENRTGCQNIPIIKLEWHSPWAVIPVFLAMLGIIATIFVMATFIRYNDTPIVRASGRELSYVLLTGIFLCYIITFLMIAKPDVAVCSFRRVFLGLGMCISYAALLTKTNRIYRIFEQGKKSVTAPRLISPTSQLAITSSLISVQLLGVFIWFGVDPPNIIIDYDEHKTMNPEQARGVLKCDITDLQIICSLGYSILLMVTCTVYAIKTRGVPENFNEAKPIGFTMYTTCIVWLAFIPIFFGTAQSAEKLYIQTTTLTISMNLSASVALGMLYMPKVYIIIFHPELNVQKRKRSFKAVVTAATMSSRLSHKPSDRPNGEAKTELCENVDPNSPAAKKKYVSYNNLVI
Chain of 5-HT2B receptor (P41595 whole entry): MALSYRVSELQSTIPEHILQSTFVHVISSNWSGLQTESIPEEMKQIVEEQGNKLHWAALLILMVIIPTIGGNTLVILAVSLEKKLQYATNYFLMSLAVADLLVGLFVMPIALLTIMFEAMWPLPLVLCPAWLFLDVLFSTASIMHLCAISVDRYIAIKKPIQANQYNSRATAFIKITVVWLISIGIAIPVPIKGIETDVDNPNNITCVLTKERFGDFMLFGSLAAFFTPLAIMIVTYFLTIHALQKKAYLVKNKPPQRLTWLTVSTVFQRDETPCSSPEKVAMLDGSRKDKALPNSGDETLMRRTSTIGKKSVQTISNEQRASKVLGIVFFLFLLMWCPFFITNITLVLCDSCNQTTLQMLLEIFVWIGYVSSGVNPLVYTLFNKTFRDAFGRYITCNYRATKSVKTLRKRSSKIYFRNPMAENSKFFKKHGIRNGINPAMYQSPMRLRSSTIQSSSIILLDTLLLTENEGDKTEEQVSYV

Structure (SMILES): COc1ccc(CNc2cc(OC(F)(F)F)ccc2-n2cncn2)cc1OC [6a]
- % L-AP4 min [1]: 17 ± 3%

Structure (SMILES): CNCCC(Oc1ccc(C(F)(F)F)cc1)c1ccccc1 (centres unmarked) [fluoxetine, reference compound]
- total time spent in the light side of the chamber ([2]; 15 mg/kg ip): increased total time spent in the light side of the chamber
- number of marbles buried ([3]; fluoxetine 15 mg/kg): decreased the number of marbles buried

Structure (SMILES): COc1cc(F)c(CCCNc2cc(OC(F)(F)F)ccc2-n2cncn2)cc1OC [6c]
- rat CLhep [4]: 66.4 mL/min/kg

Structure (SMILES): COc1ccc(C(=O)Nc2cc(OC(F)(F)F)ccc2-n2cncn2)cc1OC [compound 5]
- blocking high-frequency-stimulated LTP in the hippocampus [12]: robust efficacy

Structure (SMILES): COc1ccc(CCCNc2cc(OC(F)(F)F)ccc2-n2cncn2)cc1OC [6b]
- rat CLhep [4]: 68.1 mL/min/kg

Now from value to molecule, other results behind:

- Rat CLhep [4]: 38.4 mL/min/kg
- mGlu7 NAM activity (in words) [1]: restored mGlu7 NAM activity
Structure (SMILES): COc1cc(C(=O)Nc2cc(OC(F)(F)F)ccc2-n2cncn2)ccc1OCC(C)C [7c]

- mGlu7 NAM activity (in words) [1]: inactive
Structure (SMILES): COc1cc(C(=O)Nc2cc(OC(F)(F)F)ccc2-n2cncn2)ccc1OCC(C)(C)C [7b]

- mGlu7 NAM activity (in words) [1]: inactive
Structure (SMILES): COc1cc(C(=O)Nc2cc(OC(F)(F)F)ccc2-n2cncn2)ccc1OCC(F)(F)F [7a]

- rat CLhep [4]: 66.4 mL/min/kg
Structure (SMILES): COc1cc(F)c(OCCNc2cc(OC(F)(F)F)ccc2-n2cncn2)cc1OC [6d]

- predicted hepatic clearance, rat CLhep [4]: 15.9 mL min^–1 kg^–1
- Rat CLhep [4]: 15.9 mL/min/kg
- predicted hepatic clearance in mouse, CLhep [5]: 44.0 mL min^–1 kg^–1
- [brain]tot [8]: 375 nM
- compound activity at 5-HT2B receptor [9]: greater than 50%
- predicted unbound levels (CSF concentrations) above the in vitro IC50 ([10]; at modest doses): ~ 4 fold
- [brain]tot ([10]; rat, 30 mg/kg ip): 745 nM
- [plasma]tot ([10]; rat, 30 mg/kg ip): 598 nM
- levels in CSF ([10]; rat, 30 mg/kg ip): 1300 nM
- clearance at 24 h [11]: 31.5 mL/min/kg
Structure (SMILES): COc1cc(C(=O)Nc2cc(OC(F)(F)F)ccc2-n2cncn2)ccc1OCC1CC1 [7d, N-(2-(1H-1,2,4-Triazol-1-yl)-5-(trifluoromethoxy)phenyl)-4-(cyclopropylmethoxy)-3-methoxybenzamide]
- total time spent in the light side of the chamber ([2]; 3 mg/kg ip): increased total time spent in the light side of the chamber
- activity versus mGlu1–6,8 [6]: > 10 µM
- time spent in the open arms ([7]; 3 mg/kg ip, vs VEH p < 0.05, 3 mg/kg): increased total time spent in the open arms; also recorded: increases time spent in the open arms
- overall locomotion / distance traveled ([7]; 10 mg/kg ip, 10 mg/kg): decrease in overall locomotion; also recorded: decreased distance traveled
- number of marbles buried ([3]; 3 mg/kg, 3 mg/kg): decreased the number of marbles buried; also recorded: reduced the number of marbles buried
